Data: article PMC7824383, “Organic Solution Advanced Spray-Dried Microparticulate/Nanoparticulate Dry Powders of Lactomorphin for Respiratory Delivery: Physicochemical Characterization, In Vitro Aerosol Dispersion, and Cellular Studies” (Pharmaceutics, 2020)
Converted amounts (≈) assume the structure as drawn. Like-named read-outs stand apart in the source and are kept apart here. Square brackets hold non-standard residues; d marks the D form. Peptide text beside a SMILES is read from it. * marks the point of attachment. X1 = OC[C@H]1O[C@@H](O[C@H]2[C@H](O)[C@@H](O)[C@H](*)O[C@@H]2CO)[C@H](O)[C@@H](O)[C@H]1O

What was measured:
[1] = Equilibrium solubility by shake-flask method (SFM); assay type: physicochemical
Procedure: The solubility of the unionized form of raw (unprocessed) Lactomorphin was determined by the shake-flask method (SFM) using conditions similar to previously reported. For each reported solubility result, three independent SFM experiments were carried out in parallel in the following solvents (purified water, PBS, NS, methanol, and ethanol). For each experiment, the solid sample of Lactomorphin was added using a spatula to a specific volume of each solvent in closed, light-protected glass vials while shaking the vial until a heterogeneous system of the solid sample and the solvent was achieved. Samples were visually inspected to ensure that solid Lactomorphin was still in excess in each vial. The solution containing solid excess of the Lactomorphin was then capped and allowed to agitate using the shaker for 24 h at room temperature (25 °C). The presence of precipitation was checked after several hours. If dissolution was complete, more solid Lactomorphin was added to the vial.
The pH values of Lactomorphin ampholyte suspensions were adjusted to the isoelectric point to determine the solubilities of the zwitterionic species point and to assure the predominant presence of the unionized form of Lactomorphin. The pH of each Lactomorphin suspension in each solvent (except in methanol and ethanol, which were just measured) was adjusted by using 0.1 M NaOH/0.1 M HCl to a value of 8.5. The pH values for all vials were checked after saturation, several hours after the shaking process started, and after equilibrium was achieved. Separating saturated solution and precipitate by sedimentation was performed, which is more accurate than filtration since the filtration step is labor-intensive and tedious, it has been a known issue that drug loss can occur through membrane absorption during filtration in the SFM [32]. Aliquots of supernatant were then taken out with a micropipette from all saturated solutions and diluted with each corresponding solvent. Analytical HPLC measured the concentration of Lactomorphin in each aliquot in against freshly prepared calibration curves. As mentioned above, three independent SFMs were made for each reported result. Thus, the reported results were the mean of three measured concentrations and the standard deviation of the mean (n = 3, mean ± Standard deviation).
The HPLC system was LC-2010HT next generation HPLC (SHIMADZU Tokyo, Japan), comprised of a degassing unit, low-pressure gradient unit, pump unit, mixer, ultra-fast autosampler, column oven, and a UV-VIS detector with a thermostatted flow cell. System. The analysis was performed by a reverse phase HPLC assay, using Phenomenex Prodigy 5 um ODS (3) 250 × 4.6 mm HPLC Column. Ultraviolet detection was done at 280 nm. Mobile phase conditions were gradient of acetonitrile (CH3CN) in water (H2O) with 0.1% trifluoroacetic acid (F3CCOOH) at a 1 mL/min flow rate. The injection volume was 20 μL; the retention time for Lactomorphin was ~8.5 min. Quantification was determined using peak area and calculated from a nine-point standard curve; standard curve points were prepared by dilution in water.

[2] = test system: hCMEC/D3 human cerebral microvascular endothelial cells; test: Resazurin cell viability assay, hCMEC/D3; conditions: 48 h exposure, 0.1, 1, 10 and 1000 µg/mL, resazurin fluorescence, p > 0.05
[3] = test system: Normal Human Astrocytes (NHA); test: Resazurin cell viability assay, NHA; conditions: NHA cells, 48 h exposure, 0.1, 1, 10 and 1000 µg/mL, resazurin fluorescence; p > 0.05
[4] = test system: RPMI 2650 human nasal epithelial cells; test: Resazurin cell viability assay, RPMI 2650; conditions: RPMI2650 cells, 48 h exposure, 0.1, 1, 10 and 1000 µg/mL, resazurin fluorescence 544/590 nm; p > 0.05
[5] = Partition coefficient (LogP) by shake-flask, 1-octanol/water; assay type: physicochemical; conditions: shake-flask 1-octanol/water (equal volumes, water saturated with octanol), 1 mg/mL, pH 8.5, shaken 24 h then 24 h standing, HPLC-UV 280 nm, mean ± SD, n = 3
Procedure: Lipophilicity is a critical physicochemical property that affects ADMET (absorption, distribution, metabolism, excretion, and toxicity). SFM is the most known lipophilicity measurement method, which is based on liquid-liquid extraction using the n-octanol/water system. The partition coefficient of Lactomorphin was measured at the room, and physiological temperatures via SFM using conditions similar to previously reported. The Lactomorphin powder was dispensed into two individual glass vials containing equal volumes of 1-octanol and water to achieve a 1 mg/mL concentration. The water solution in each vial was saturated with octanol before analysis. The pH was measured and fixed to 8.5 value to assure the predominant presence of the unionized form of Lactomorphin. The pH stability in both vials was regularly checked throughout the experiment. The first vial was shaken for 24 h at room temperature. The other one was shaken for 24 h while kept in an incubator at 37 °C. After 24 h, the vials shaking was stopped. […] A sample from each layer was carefully withdrawn and analyzed by the analytical HPLC to measure the concentration of Lactomorphin in each layer then calculate the Partition coefficient (P) and logP using the following equations:(4) P =[neutral solute]oct/[neutral solute]Aq (5) LogP=log10[neutral solute]oct/[neutral solute]Aq […]

[6] = Thermal degradation study of solid-state Lactomorphin; assay type: physicochemical; conditions: n = 3
Description: Forced degradation is a degradation of new drug substances at conditions more severe than accelerated conditions. The FDA and ICH guidance estate the requirement of stability testing data to understand how the quality of drug changes with time under various environmental conditions. Thermal, hydrolysis, oxidation, and photodegradation are commonly used stress study conditions. Knowledge of a molecule’s stability helps select proper formulation and provide adequate storage conditions and shelf life, which is essential for regulatory documentation. As the temperature is one of the most vital factors that affect the stability of a drug material more than the other conditions, in this study, we performed thermal degradation by exposing samples of solid-state Lactomorphin to dry and wet heat.
Samples preparation were done by weighing 25 mg of Lactomorphin, transfer it into a 25 mL volumetric flask, and add 25 mL of water and shake so all the quantity dissolved. Using a calibrated micropipette, transfer 0.20 mL of this 1 mg/mL Lactomorphin stock solution into around 90 (2 mL) glass vials. Freeze-dry all vials so that all vials have accurately 0.2 mg of Lactomorphin after lyophilization. A saturated salt solution of NaCl to achieve about 75% Relative Humidity (RH) and saturated salt solution of P2O5 to reach about 0.00% RH were prepared. Thirty vials contain 0.2 mg of Lactomorphin were kept inside a separate desiccator (tightly closed 20 mL glass vial with saturated NaCl). Another set of 30 vials were kept inside the desiccator (tightly closed 20 mL glass vial with saturated P2O5). All were put in oven fixed at 62 °C temperature. To achieve equal distribution of heat inside the oven for all samples used for the degradation study, they were placed in a metallic block made, especially for this study. The rest of the vials were kept in a desiccator at −80 °C to be used as comparison(control) samples.
According to the regulatory guidelines, there is no specific concentration used for the degradation study; however, 1 mg/mL concentration is recommended. This study used three concentrations by dissolving the stability samples in 0.2 mL, 0.4 mL, and 2 mL water to achieve 1000 μg/mL, 500 μg/mL, and 100 μg/mL concentration, respectively. Analysis of the stability samples was performed every time against a freshly prepared calibration curve and comparison samples (control samples that freshly prepared and injected directly without being exposed to the force degradation conditions) at the following periods: 0.00, 0.08, 0.17, 1, 2, 4, 10, 20, 45, 94 and 133 days. All experiments at each time point and different stability conditions were done in triplicate (n = 3). The HPLC system consisted of a VARIAN ProStar model 330 PDA Detector coupled with a VARIAN ProStar Solvent delivery module and VARIAN ProStar model 430 auto-sampler. The analysis was performed by a reverse phase HPLC assay, using Inspire™ 5 μm C18, 250 × 4.6 mm HPLC Column. Ultraviolet detection was done at 280, 254 and 220 nm, but the quantitation was done at 280 nm only. Mobile phase conditions were gradient according to the above program in Section 2.2.13 and at a flow rate of 1.00 mL/min.

[7] = test system: H441 lung adenocarcinoma cells; test: Resazurin cell viability assay, H441; conditions: 48 h exposure, 0.1, 1, 10 and 1000 µg/mL, resazurin fluorescence, p > 0.05
[8] = Residual water content by Karl Fischer titration; assay type: physicochemical; conditions: Karl Fischer coulometric titration, 1–2 mg in anhydrous methanol; mean ± SD, n = 3
Procedure: Using conditions similar to previously reported, the residual water content of all powders was quantified by Karl Fischer titration (KFT) […] using a TitroLine® 7500 trace titrator (SI Analytics, Mainz, Germany). Around 1–2 mg of sample was dissolved in 0.5 mL AQUA STAR anhydrous methanol. The sample solution was injected into a reaction cell filled with Hydranal®Coulomat AD reagent; then, a simple calculation obtained the sample’s water content. All experiments were done in triplicate (n = 3).

CC(C)C[C@H](NC(=O)[C@H](Cc1ccccc1)NC(=O)CNC(=O)[C@H](NC(=O)[C@@H](N)Cc1ccc(O)cc1)[C@H](C)O)C(=O)N[C@@H](CO[C@@H]1O[C@H](CO)[C@@H](O[C@@H]2O[C@H](CO)[C@H](O)[C@H](O)[C@H]2O)[C@H](O)[C@H]1O)C(N)=O [Lactomorphin, H2N-Tyr-D-Thr- Gly-Phe-Leu-Ser-(O-β-Lactoside)-CONH2] (H-Y[dT]GFLS(X1)-NH2)
Solubility (USP) Definition, PBS ([1]; PBS, pH 8.50 (adjusted), 25 °C): Freely soluble (Fs) (all these solubility values fell in the range of 100–1000 mg/mL, which is the freely soluble category) | solubility thermodynamic at 24 h ([1]; aqueous buffer, thermodynamic from solid, water, NS and PBS, shake-flask, pH 8.5, 25 °C, read-out: aqueous solubility): > 100 mg/mL | Solubility (USP) Definition, Ethanol ([1]; ethanol, pH 7.30 (measured), 25 °C): Sparingly soluble (sps) | Calculated Log S, NS ([1]; from experimental solubility, footnote: S in mMoleunit, NS, pH 8.50): −0.9 | Calculated Log S, PBS ([1]; from experimental solubility, footnote: S in mMoleunit, PBS, pH 8.50): −0.3 | Calculated Log S, Ethanol ([1]; from experimental solubility, footnote: S in mMoleunit, ethanol): −1.7 | Calculated Log S, Methanol ([1]; from experimental solubility, footnote: S in mMoleunit, methanol): −1.3 | Calculated Log S, Water ([1]; from experimental solubility, footnote: S in mMoleunit, water, pH 8.50): −0.6 | Solubility (USP) Definition, Methanol ([1]; methanol, pH 7.27 (measured), 25 °C): Soluble (s) | solubility thermodynamic at 24 h ([1]; normal saline (NS), pH 8.5, saline or isotonic, thermodynamic from solid, thermodynamic shake-flask, excess solid, normal saline, pH 8.50 (adjusted), shaken 24 h, 25 °C, HPLC-UV 280 nm, mean ± SD, n = 3, read-out: Solubility in NS): 140.4 ± 0.32 mg/mL (≈ 139 mM) | Solubility (USP) Definition, NS ([1]; normal saline, pH 8.50 (adjusted), 25 °C): Freely soluble (Fs) (all these solubility values fell in the range of 100–1000 mg/mL, which is the freely soluble category) | solubility thermodynamic at 24 h ([1]; pH 8.5, aqueous buffer, thermodynamic from solid, thermodynamic shake-flask, excess solid, PBS, pH 8.50 (adjusted), shaken 24 h, 25 °C, HPLC-UV 280 nm, mean ± SD, n = 3, read-out: Solubility in PBS): 570.3 ± 2 mg/mL (≈ 565 mM) | solubility thermodynamic at 24 h ([1]; pH 8.5, thermodynamic from solid, thermodynamic shake-flask, excess solid raw Lactomorphin, purified water, pH 8.50 (adjusted with 0.1 M NaOH/HCl), shaken 24 h, 25 °C, sedimentation, HPLC-UV 280 nm, mean ± SD, n = 3, read-out: Solubility in Water): 267 ± 6 mg/mL (≈ 264 mM) | Solubility in Ethanol ([1]; thermodynamic shake-flask, excess solid, ethanol, pH 7.30 (measured), shaken 24 h, 25 °C, HPLC-UV 280 nm, mean ± SD, n = 3): 18.00 ± 0.00 mg/mL (≈ 17.8 mM) | Solubility in Methanol ([1]; thermodynamic shake-flask, excess solid, methanol, pH 7.27 (measured), shaken 24 h, 25 °C, HPLC-UV 280 nm, mean ± SD, n = 3): 45.67 ± 1.00 mg/mL (≈ 45.2 mM) | Solubility (USP) Definition, Water ([1]; water, pH 8.50 (adjusted), 25 °C): Freely soluble (Fs) (all these solubility values fell in the range of 100–1000 mg/mL, which is the freely soluble category) | relative cell viability% vs control [2]: no statistically significant difference | relative cell viability% vs control [3]: no statistically significant difference | relative cell viability% vs control [4]: no statistically significant difference | Experimental LogP at Room Temperature (25 °C) ([5]; 25 °C): −2.40 ± 0.00 | Experimental LogP at Physiological Temperature (37 °C) ([5]; 37 °C): −2.33 ± 0.02 | Lactomorphin stability% (remaining%) ([6]; solid (lyophilised 0.2 mg), 62 °C / 75% RH, 2 hrs, reconstituted in water to 100, 500, 1000 μg/mL, HPLC-UV 280 nm vs fresh controls): 59% | Lactomorphin stability% (remaining%) ([6]; solid, 62 °C / 75% RH, 4 hrs, reconstituted 100, 500, 1000 μg/mL, HPLC-UV 280 nm): 29% | Lactomorphin stability% (remaining%) ([6]; solid, 62 °C / 75% RH, 24 h, reconstituted 100, 500, 1000 μg/mL, HPLC-UV 280 nm): 6% | Lactomorphin stability% (remaining%) ([6]; solid, 62 °C / RH 0.00%, 10 days, HPLC-UV 280 nm): around 60% | Lactomorphin stability% (remaining%) ([6]; solid, 62 °C / RH 0.00%, day 94, HPLC-UV 280 nm): ~ 10% | Lactomorphin stability% (remaining%) ([6]; solid, 62 °C / RH 0.00%, day 133, HPLC-UV 280 nm): ~ 10% | Lactomorphin stability% (remaining%) ([6]; solid, 62 °C / RH 0.00%, up to day 45, HPLC-UV 280 nm): around 60% | relative cell viability% vs control [7]: no statistically significant difference

OC[C@H]1O[C@H](O[C@H]2O[C@H](CO)[C@@H](O)[C@H](O)[C@H]2O)[C@H](O)[C@@H](O)[C@@H]1O [Raw Trehalose, D (+)-Trehalose dihydrate]
Water % (w/w) [8]: 8.11 ± 1.96 % (w/w)
